Converted amounts (≈) assume the structure as drawn.
Test system: Escherichia coli
Assay: Antibacterial activity against Escherichia coli MG1655 assessed as inhibition of bacterial growth
Assay type: functional

- MIC: 16 µg/mL (≈ 45.3 µM)
Structure (SMILES): COc1ccc(-c2c(-c3ccc(C)s3)[nH]c3[nH]c(=O)[nH]c(=O)c23)cc1

Reference: ChEMBL document CHEMBL5375950, “Chemical genetic approaches for the discovery of bacterial cell wall inhibitors” (2023)
